Assay results from US20230031406A1, “COMPOUNDS AND COMPOSITIONS FOR TREATING CONDITIONS ASSOCIATED WITH NLRP ACTIVITY” (Novartis AG, priority 2018, published 2023).

Tests used:
[1] = test system: PMA-differentiated THP-1 cells; assay: hTHP-1 assay containing 10% fetal bovine serum (IL-1β production, Tables B5 and B6); format: cell-based, human; conditions: read-out: hTHP-1 IC50 in 10% FBS, hTHP-1 assay containing 10% fetal bovine serum, Table B5
Procedure: The following protocol is suitable for testing the activity of the compounds disclosed herein. Procedure 1: IL-1β Production in PMA-Differentiated THP-1 Cells Stimulated with Gramicidin.
THP-1 cells were purchased from the American Type Culture Collection and sub-cultured according to instructions from the supplier. Cells were cultured in complete RPMI 1640 (containing 10% heat inactivated FBS, penicillin (100 units/ml) and streptomycin (100 μg/ml)), and maintained in log phase prior to experimental setup. Prior to the experiment, compounds were dissolved in dimethyl sulfoxide (DMSO) to generate a 30 mM stock. The compound stock was first pre-diluted in DMSO to 3, 0.34, 0.042 and 0.0083 mM intermediate concentrations and subsequently spotted using Echo550 liquid handler into an empty 384-well assay plate to achieve desired final concentration (e.g. 100, 33, 11, 3.7, 1.2, 0.41, 0.14, 0.046, 0.015, 0.0051, 0.0017 μM). DMSO was backfilled in the plate to achieve a final DMSO assay concentration of 0.37%. The plate was then sealed and stored at room temperature until required.
THP-1 cells were treated with PMA (Phorbol 12-myristate 13-acetate) (20 ng/ml) for 16-18 hours. On the day of the experiment the media was removed and adherent cells were detached with trypsin for 5 minutes. […] The cells were plated in the 384-well assay plate containing the spotted compounds at a density of 50,000 cells/well (final assay volume 50 μl). Cells were incubated with compounds for 1 hour and then stimulated with gramicidin (5 μM) (Enzo) for 2 hours. Plates were then centrifuged at 340 g for 5 min. Cell free supernatant (40 μL) was collected using a 96—CHannel PlateMaster (Gilson) and the production of IL-1β was evaluated by HTRF (cisbio). The plates were incubated for 18 h at 4° C. and read using the preset HTRF program (donor emission at 620 nm, acceptor emission at 668 nm) of the SpectraMax i3x spectrophotometer (Molecular Devices, software SoftMax 6). A vehicle only control and a dose titration of CRID3 (100-0.0017 μM) were run concurrently with each experiment.
Procedure 2: IL-1β Production in PMA-Differentiated THP-1 Cells Stimulated with Gramicidin.
THP-1 cells were purchased from the American Type Culture Collection and sub-cultured according to instructions from the supplier. Prior to experiments, cells were cultured in complete RPMI 1640 (containing 10% heat inactivated FBS, penicillin (100 units/ml) and streptomycin (100 μg/ml)), and maintained in log phase prior to experimental setup. Prior to the experiment THP-1 were treated with PMA (Phorbol 12-myristate 13-acetate) (20 ng/ml) for 16-18 hours. Compounds were dissolved in dimethyl sulfoxide (DMSO) to generate a 30mM stock. On the day of the experiment the media was removed and adherent cells were detached with trypsin for 5 minutes. […] The cells were plated in a 384-well plate at a density of 50,000 cells/well (final assay volume […]). Compounds were first dissolved in assay medium to obtain a 5× top concentration of 500 μM. 10 step dilutions (1:3) were then undertaken in assay medium containing 1.67% DMSO. 5× compound solutions were added to the culture medium to achieve desired final concentration (e.g. 100, 33, 11, 3.7, 1.2, 0.41, 0.14, 0.046, 0.015, 0.0051, 0.0017 μM). Final DMSO concentration was at 0.37%. Cells were incubated with compounds for 1 hour and then stimulated with gramicidin (5 μM) (Enzo) for 2 hours. Plates were then centrifuged at 340 g for 5 min. Cell free supernatant (40 μL) was collected using a 96—CHannel PlateMaster (Gilson) and the production of IL-1β was evaluated by HTRF (cisbio). A vehicle only control and a dose titration of CRID3 (100-0.0017 μM) were run concurrently with each experiment.
Tables B1, B2, B3, and B4 show the biological activity of compounds in hTHP-1 assay containing 2% fetal bovine serum. […] Key: <0.008 μM=“++++++”; ≥0.008 and <0.04 μM=“+++++”; >0.04 and <0.2 μM=“++++”; ≥0.2 and <1 μM=“+++”; ≥1 and <5 μM=“++”; ≥5 and <30 μM=“+”. […]

[2] = test system: PMA-differentiated THP-1 cells; assay: IL-1β production in PMA-differentiated THP-1 cells stimulated with gramicidin (hTHP-1 assay containing 2% fetal bovine serum; Procedures 1 and 2); format: cell-based, human; conditions: 2% fetal bovine serum
Summary of the method: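 PMA 20 ng/ml 16-18 h → trypsinise → 50,000 cells/well, RPMI/2% FBS; cpd 1 h (11-pt, 100–0.0017 μM; DMSO 0.37%); gramicidin 5 μM, 2 h; spin; supernatant IL-1β via HTRF.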

[3] = Homo sapiens, THP-1, Table B4, class symbols, read-out: hTHP-1 IC50
[4] = Homo sapiens, THP-1, Table B3, hTHP-1 assay, numeric values, read-out: IC50

| SMILES | IC50 [2, 3] | other results |
| --- | --- | --- |
| Cc1c(C(F)(F)F)nc2c(c1NC(=O)N=S(N)(=O)c1nn(C(C)(F)F)cc1F)CCC2 (single isomer, unassigned) [Compound 1004a, (R) or (S)-1-(1,1-Difluoroethyl)-4-fluoro-N′-((3-methyl-2-(trifluoromethyl)-6,7-dihydro-5H-cyclopenta[b]pyridin-4-yl)carbamoyl)-1H-pyrazole-3-sulfonimidamide] | – | IC50 ([1]; listed as 832): 0.04 to 0.2 µM |
| Cc1c(C(F)(F)F)nc2c(c1NC(=O)N=S(N)(=O)c1nn(C(C)(F)F)cc1F)CCC2 (single isomer, unassigned) [Compound 1004b, (S) or (R)-1-(1,1-Difluoroethyl)-4-fluoro-N′-((3-methyl-2-(trifluoromethyl)-6,7-dihydro-5H-cyclopenta[b]pyridin-4-yl)carbamoyl)-1H-pyrazole-3-sulfonimidamide] | – | IC50 ([1]; listed as 833): 1 to 5 µM |
| Cc1c(C(F)(F)F)nc2c(c1NC(=O)N=S(N)(=O)c1cnc(C(F)F)s1)CCC2 (single isomer, unassigned) [Compound 1007a, (R) or (S)-2-(Difluoromethyl)-N′-((3-methyl-2-(trifluoromethyl)-6,7-dihydro-5H-cyclopenta[b]pyridin-4-yl)carbamoyl)thiazole-5-sulfonimidamide] | – | IC50 ([1]; listed as 829): 1 to 5 µM |
| CCc1c(C(F)(F)F)nc2c(c1NC(=O)N=S(N)(=O)c1nn(CC)cc1F)CCC2 (stereo not drawn) [Example 743, 1-Ethyl-N′-((3-ethyl-2-(trifluoromethyl)-6,7-dihydro-5H-cyclopenta[b]pyridin-4-yl)carbamoyl)-4-fluoro-1H-pyrazole-3-sulfonimidamide] | 1 to 5 µM | – |
| CCn1cc(F)c(S(N)(=O)=NC(=O)Nc2c3c(nc(C(F)(F)F)c2C2CC2)CCC3)n1 (stereo not drawn) [Example 744, N′-((3-cyclopropyl-2-(trifluoromethyl)-6,7-dihydro-5H-cyclopenta[b]pyridin-4-yl)carbamoyl)-1-ethyl-4-fluoro-1H-pyrazole-3-sulfonimidamide] | 0.04 to 0.2 µM | – |
| CCn1cc(F)c(S(N)(=O)=NC(=O)Nc2c(-c3ccccc3)cnc3c2CCC3)n1 (stereo not drawn) [Example 745, 1-Ethyl-4-fluoro-N′-((3-phenyl-6,7-dihydro-5H-cyclopenta[b]pyridin-4-yl)carbamoyl)-1H-pyrazole-3-sulfonimidamide] | 1 to 5 µM | – |
| CCn1cc(F)c(S(N)(=O)=NC(=O)Nc2c3c(nc(C(F)(F)F)c2-c2ccccc2F)CCC3)n1 (stereo not drawn) [Example 746, 1-Ethyl-4-fluoro-N′-((3-(2-fluorophenyl)-2-(trifluoromethyl)-6,7-dihydro-5H-cyclopenta[b]pyridin-4-yl)carbamoyl)-1H-pyrazole-3-sulfonimidamide] | 0.008 to 0.04 µM | – |
| CCn1cc(F)c(S(N)(=O)=NC(=O)Nc2c3c(nc(C(F)(F)F)c2-c2cccc(F)c2)CCC3)n1 (stereo not drawn) [Example 747, 1-Ethyl-4-fluoro-N′-((3-(3-fluorophenyl)-2-(trifluoromethyl)-6,7-dihydro-5H-cyclopenta[b]pyridin-4-yl)cathamoyl)-1H-pyrazole-3-sulfonimidamide] | – | IC50 ([2]; Table B4, class symbols, read-out: hTHP-1 IC50): 0.008 to 0.04 µM |
| C[C@@H]1CCc2c1nc1c(c2NC(=O)N=S(N)(=O)c2nn(-c3ccccc3)cc2F)CCC1 (stereo partly drawn) [Example 748, 4-Fluoro-N′-(((R)-3-methyl-1,2,3,5,6,7-hexahydrodicyclopenta [b, e]pyridin-8-yl)carbamoyl)-1-phenyl-1H-pyrazole-3-sulfonimidamide] | 0.2 to 1 µM | – |
| Cc1c(C(F)(F)F)nc2c(c1NC(=O)N=S(N)(=O)c1nn(-c3ccccc3)cc1F)CCC2 (stereo not drawn) [Example 749, 4-Fluoro-N′-((3-methyl-2-(trifluoromethyl)-6,7-dihydro-5H-cyclopenta[b]pyridin-4-yl)carbamoyl)-1-phenyl-1H-pyrazole-3-sulfonimidamide] | 1 to 5 µM | – |
| CC(C)n1cc(F)c(S(N)(=O)=NC(=O)Nc2c3c(nc4c2CCC4)CCC3)n1 (stereo not drawn) [Example 750, 4-Fluoro-N′-((1,2,3,5,6,7-hexahydrodicyclopenta[b,e]pyridin-8-yl)carbamoyl)-1-isopropyl-1H-pyrazole-3-sulfomidamide] | 0.2 to 1 µM | – |
| CN(C)C(=O)c1ncc(S(N)(=O)=NC(=O)Nc2c3c(nc4c2CCC4(C)C)CCC3)s1 (stereo not drawn) [Example 751, 5-(N′-((3,3-dimethyl-1,2,3,5,6,7-hexahydrodicyclopenta[b,e]pyridin-8-yl)carbamoyl)sulfamidimidoyl)-N,N-dimethyl-thiazole-2-carboxamide] | 1 to 5 µM | – |
| CC1CCc2c1nc1c(c2NC(=O)N=S(N)(=O)c2cnc(C(O)CO)s2)CCC1 (stereo not drawn) [Example 752, 2-(1,2-Dihydroxyethyl)-N′-((3-methyl-1,2,3,5,6,7-hexahydrodicyclopenta[b,e]pyridin-8-yl)carbamoyl) thiazole-5-sulfonimidamide] | 1 to 5 µM | – |
| CC1(C)CCc2c1nc1c(c2NC(=O)N=S(N)(=O)c2cnc(C(O)CO)s2)CCC1 (stereo not drawn) [Example 753, 2-(1,2-Dihydroxyethyl)-N′-((3,3-dimethyl-1,2,3,5,6,7-hexahydrodicyclopenta[b,e]pyridin-8-yl)carbamoyl) thiazole-5-sulfonimidamide] | 0.2 to 1 µM | – |
| CC(O)c1csc([S@@](N)(=O)=NC(=O)Nc2c3c(nc4c2CC[C@H]4C)CCC3)c1 (stereo partly drawn) [compound 583, (S)-4-(1-hydroxyethyl)-N′-(((R)-3-methyl-1,2,3,5,6,7-hexahydrodicyclopenta[b,e]pyridin-8-yl)carbamoyl)thiophene-2-sulfonimidamide] | – | IC50 ([2]; Homo sapiens, THP-1, Table B3, hTHP-1 assay, class symbols, read-out: IC50): 1 to 5 µM |
| CN(C)Cc1nc(C(C)(C)O)sc1S(N)(=O)=NC(=O)Nc1c2c(nc3c1CCC3(C)C)CCC2 (stereo not drawn) [compound 592, N′-((3,3-dimethyl-1,2,3,5,6,7-hexahydrodicyclopenta[b,e]pyridin-8-yl)carbamoyl)-4-((dimethylamino)methyl)-2-(2-hydroxypropan-2-yl)thiazole-5-sulfonimidamide] | – | IC50 [2, 4]: > 30 µM |
| CC(C)(O)c1ncc(S(N)(=O)=NC(=O)Nc2c3c(nc4c2CCC4=O)CCC3)s1 (stereo not drawn) [compound 593, 2-(2-Hydroxypropan-2-yl)-N′-((3-oxo-1,2,3,5,6,7-hexahydrodicyclopenta[b,e]pyridin-8-yl)carbamoyl)thiazole-5-sulfonimidamide] | – | IC50 [2, 4]: > 30 µM |
| CCn1ncc(F)c1S(N)(=O)=NC(=O)Nc1c(C)c(C(F)(F)F)nc2c1CCC2 (stereo not drawn) [compound 754, 1-Ethyl-4-fluoro-N′-((3-methyl-2-(trifluoromethyl)-6,7-dihydro-5H-cyclopenta[b]pyridin-4-yl)carbamoyl)-1H-pyrazole-5-sulfonimidamide] | 1 to 5 µM | – |
